In the test the target is catalytic domain 2 (CD2) of HDAC6 (Homo sapiens (Human), UniProt Q9UBN7). Briefly: Cellular target engagement assay - NanoBRET. It is filed as cell-based. The settings on record: NanoLuc-HDAC6(CD2) in HEK293T cells, 2 hours, read-out: IC50 (HDAC6(CD2) interaction). How it is done:
NanoBRET target engagement was performed against the catalytic domain 2 (CD2) of HDAC6, with minor modifications of kit manufacturer protocol (Promega). Expression of exogenous NanoLuc-HDAC6(CD2) fusion and in HEK293T was achieved following transient transfection with FuGENE HD Transfection Reagent (Promega). The intracellular target engagement assay on HDAC6(CD2) was performed in a 384-well plate format with 8,000 cells per well and a tracer concentration of 0.125 μM or 0.600 μM for HDAC6(CD2). Compounds (dissolved in 100% DMSO) or DMSO (vehicle) were added either manually by diluting them in culture medium at 8× final assay concentration and then adding 5 μL to assay plate or in an automated way by adding […] compound to 5 μL OptiMEM without phenol red (Gibco) using the Echo650 (Labcyte). Tracer solution was added to the cells before seeding 35 μL cell/tracer mixture in the assay plate. The final reaction volume was 40 μL, final DMSO concentration was 1.4% (manual compound addition) or 1.25% (automated compound addition). Assay plates were incubated at 37° C. in a humidified atmosphere containing 5% C02 for 2 hours. The NanoBRET Nano-glo Substrate/Inhibitor was prepared by diluting NanoBRET Nano-Glo Substrate (1:332) and Extracellular Inhibitor (1:1000) in assay medium (Promega). […] BRET ratios were calculated from acceptor/donor signal ratio (mBRET=acceptor/donor*1000) and normalized for each plate. Percentage inhibition was calculated by setting the mBRET obtained with cells without tracer to 100%, while the mBRET obtained with uninhibited cells with tracer was set to 0%. IC50-values were calculated from the percentage inhibition with the log(inhibitor) vs. response—Variable slope (four parameters) nonlinear regression in GraphPad Prism software.
Chain of catalytic domain 2 (CD2) of HDAC6 (Q9UBN7 482-800): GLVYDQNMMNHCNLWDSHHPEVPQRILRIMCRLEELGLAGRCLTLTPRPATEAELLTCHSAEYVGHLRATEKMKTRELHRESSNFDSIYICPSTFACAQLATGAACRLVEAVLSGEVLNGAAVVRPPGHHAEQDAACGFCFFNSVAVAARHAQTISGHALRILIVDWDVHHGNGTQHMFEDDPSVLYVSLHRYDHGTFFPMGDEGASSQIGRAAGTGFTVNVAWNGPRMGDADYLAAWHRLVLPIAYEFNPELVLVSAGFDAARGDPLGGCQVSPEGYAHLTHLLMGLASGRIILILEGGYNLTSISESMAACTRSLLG
Broadly, the IC50 is the concentration that gives 50% inhibition. `COc1cccc2oc(SCC(=O)c3ccc(CNC(=O)CO)s3)nc12` [Example 168, 2-hydroxy-N-((5-(2-((4-methoxybenzo[d]oxazol-2-yl)thio)acetyl)thiophen-2-yl)methyl)acetamide]: the half-inhibitory concentration (IC50) fell in the range of 1000 to 10000 nM.
The value for `CN(Cc1ccc(C(=O)CSc2nc(C(F)(F)F)nc3ncccc23)s1)C(=O)CO` [Compound 131, 2-hydroxy-N-methyl-N-((5-(2-((2-(trifluoromethyl)pyrido[2,3-d]pyrimidin-4-yl)thio)acetyl)thiophen-2-yl)methyl)acetamide] was no more than 100 nM; that for `COc1ccc2nc(C)nc(SCC(=O)c3ccc(CNC(=O)C(C)(C)C)s3)c2c1` [Example 17, N-((5-(2-((6-methoxy-2-methylquinazolin-4-yl)thio)acetyl)thiophen-2-yl)methyl)pivalamide] was 100 to 500 nM; that for `Cn1ncc2c(SCC(=O)c3ccc(CNS(=O)(=O)c4ccccc4)s3)ncnc21` [Compound 88, N-((5-(2-((1-methyl-1H-pyrazolo[3,4-d]pyrimidin-4-yl)thio)acetyl)thiophen-2-yl)methyl)benzenesulfonamide] was 1000 to 10000 nM.
The value for `CCOc1cc2c(SCC(=O)c3ccc(CNC(=O)CO)s3)nc(C)nc2cn1` [Compound 145, N-((5-(2-((6-ethoxy-2-methylpyrido[3,4-d]pyrimidin-4-yl)thio)acetyl)thiophen-2-yl)methyl)-2-hydroxyacetamide] was no more than 100 nM; that for `O=C(CO)NCc1ccc(C(=O)CSc2nccn3cncc23)s1` [Example 181, 2-hydroxy-N-((5-(2-(imidazo[1,5-a]pyrazin-8-ylthio)acetyl)thiophen-2-yl)methyl)acetamide] was 100 to 500 nM.
The result for `O=C(CO)NCc1ccc(C(=O)CSc2nc(C(F)(F)F)nc3ccc(N4CCOCC4)cc23)s1` [Example 63] reads 100 to 500 nM.
With `COc1ccc2nc(C)nc(SCC(=O)c3ccc(CNC(=O)C4CCCO4)s3)c2c1` (stereo not shown) [Compound 171, N-((5-(2-((6-methoxy-2-methylquinazolin-4-yl)thio)acetyl)thiophen-2-yl)methyl)tetrahydrofuran-2-carboxamide], the IC50 lay within 100 to 500 nM.
The result for `COc1cnc2nc(C)nc(SCC(=O)c3ccc(CNC(=O)OC(C)(C)C)s3)c2c1` [Example 190, tert-butyl ((5-(2-((6-methoxy-2-methylpyrido[2,3-d]pyrimidin-4-yl)thio)acetyl)thiophen-2-yl)methyl)carbamate] reads 100 to 500 nM; that for `CC(C)(C)C(=O)NCc1ccc(C(=O)CSc2nc(C3CCC3)nc3ccccc23)s1` [Example 14, N-((5-(2-((2-cyclobutylquinazolin-4-yl)thio)acetyl)thiophen-2-yl)methyl)pivalamide], 100 to 500 nM.
The value for `O=C(CO)NCc1ccc(C(=O)CSc2nc3c(C(F)(F)F)cccc3o2)s1` [Compound 196, 2-hydroxy-N-((5-(2-((4-(trifluoromethyl)benzo[d]oxazol-2-yl)thio)acetyl)thiophen-2-yl)methyl)acetamide] was 1000 to 10000 nM.
Consider `Cc1nc(SCC(=O)c2ccc(CNC(=O)C3CC3(F)F)s2)c2cccnc2n1` (stereo not shown) [Compound 110, 2,2-difluoro-N-((5-(2-((2-methylpyrido[2,3-d]pyrimidin-4-yl)thio)acetyl)thiophen-2-yl)methyl)cyclopropane-1-carboxamide], for which the concentration for half-maximal inhibition (IC50) was 100 to 500 nM.
For `COc1ccc2nc(C)nc(SCC(=O)c3ccc(CNC(=O)C(F)F)s3)c2c1` [Compound 172, 2,2-difluoro-N-((5-(2-((6-methoxy-2-methylquinazolin-4-yl)thio)acetyl)thiophen-2-yl)methyl)acetamide], the IC50 fell in the range of 100 to 500 nM.
As to `CC(=O)NCCc1ccc(C(=O)CSc2nc(C(F)(F)F)nc3ccccc23)s1` [Compound 100, N-(2-(5-(2-((2-(trifluoromethyl)quinazolin-4-yl)thio)acetyl)thiophen-2-yl)ethyl)acetamide], the half-inhibitory concentration (IC50) was in the range of 100 to 500 nM.
On to `COc1ccc2nc(C)nc(SCC(=O)c3ccc(CNC(=O)C4CC4(F)F)s3)c2c1` (stereo not shown) [Example 39, 2,2-difluoro-N-((5-(2-((6-methoxy-2-methylquinazolin-4-yl)thio)acetyl)thiophen-2-yl)methyl)cyclopropane-1-carboxamide], for which the IC50 was in the range of 500 to 1000 nM.
On to `Cc1nc(SCC(=O)c2ccc(CNC(=O)CO)s2)c2cc(C(F)(F)F)cc(N(C)C)c2n1` [Compound 150, N-((5-(2-((8-(dimethylamino)-2-methyl-6-(trifluoromethyl)quinazolin-4-yl)thio)acetyl)thiophen-2-yl)methyl)-2-hydroxyacetamide], for which the half-maximal inhibitory concentration (IC50) is no more than 100 nM.
The result for `CCn1ncc2c(SCC(=O)c3ccc(CNC(=O)CO)s3)nc(C(F)(F)F)nc21` [Compound 136, N-((5-(2-((1-ethyl-6-(trifluoromethyl)-1H-pyrazolo[3,4-d]pyrimidin-4-yl)thio)acetyl)thiophen-2-yl)methyl)-2-hydroxyacetamide] reads no more than 100 nM; that for `COc1ccc2nc(C)nc(SCC(=O)c3ccc(CNC(=O)C(F)(F)C(F)(F)F)s3)c2c1` [Example 40, 2,2,3,3,3-pentafluoro-N-((5-(2-((6-methoxy-2-methylquinazolin-4-yl)thio)acetyl)thiophen-2-yl)methyl)propanamide], 1000 to 10000 nM.
As to `Cc1nc(SCC(=O)c2ccc(CNC(=O)CO)s2)c2cc(N3CCCOCC3)ccc2n1` [Compound 83, 2-hydroxy-N-((5-(2-((2-methyl-6-(1,4-oxazepan-4-yl)quinazolin-4-yl)thio)acetyl)thiophen-2-yl)methyl)acetamide], the IC50 was no more than 100 nM.
Regarding `COc1ccc2nc(C)nc(SCC(=O)c3ccc(CN4CCC(O)C4=O)s3)c2c1` (stereo not shown) [Example 141, 3-hydroxy-1-((5-(2-((6-methoxy-2-methylquinazolin-4-yl)thio)acetyl)thiophen-2-yl)methyl)pyrrolidin-2-one], the half-maximal inhibitory concentration (IC50) was in the range of 100 to 500 nM.
The value for `Cc1ccc2oc(SCC(=O)c3ccc(CNC(=O)CO)s3)nc2c1` [Example 170, 2-hydroxy-N-((5-(2-((5-methylbenzo[d]oxazol-2-yl)thio)acetyl)thiophen-2-yl)methyl)acetamide] was 1000 to 10000 nM.
The result for `O=C(CO)NCc1ccc(C(=O)CSc2nccc3cccnc23)s1` [Example 165, N-((5-(2-((1,7-naphthyridin-8-yl)thio)acetyl)thiophen-2-yl)methyl)-2-hydroxyacetamide] reads 100 to 500 nM; that for `Cc1nc(SCC(=O)c2ccc(CNC(=O)CO)s2)c2cc(C3CC3)ccc2n1` [Compound 106, N-((5-(2-((6-cyclopropyl-2-methylquinazolin-4-yl)thio)acetyl)thiophen-2-yl)methyl)-2-hydroxyacetamide], no more than 100 nM.
With `O=C(CO)NCc1ccc(C(=O)CSc2nc(C(F)(F)F)nc3cc(C4CC4)nn23)s1` [Compound 112, N-((5-(2-((7-cyclopropyl-2-(trifluoromethyl)pyrazolo[1,5-a][1,3,5]triazin-4-yl)thio)acetyl)thiophen-2-yl)methyl)-2-hydroxyacetamide], the IC50 was no more than 100 nM.
The result for `CCc1nc(SCC(=O)c2ccc(CNC(=O)CO)s2)c2ccccc2n1` [Compound 62, N-((5-(2-((2-ethylquinazolin-4-yl)thio)acetyl)thiophen-2-yl)methyl)-2-hydroxyacetamide] reads no more than 100 nM.
In the case of `Cn1cc2c(SCC(=O)c3ccc(CNC(=O)C(C)(C)C)s3)nc(C(F)(F)F)nc2n1` [Example 22, N-((5-(2-((2-methyl-6-(trifluoromethyl)-2H-pyrazolo[3,4-d]pyrimidin-4-yl)thio)acetyl)thiophen-2-yl)methyl)pivalamide], the half-maximal inhibitory concentration (IC50) was no more than 100 nM.
On to `Cn1c(SCC(=O)c2ccc(CNC(=O)CO)s2)nc2ccccc21` [Example 169, 2-hydroxy-N-((5-(2-((1-methyl-1H-benzo[d]imidazol-2-yl)thio)acetyl)thiophen-2-yl)methyl)acetamide], for which the IC50 was in the range of 1000 to 10000 nM.
The result for `Cc1nc(SCC(=O)c2ccc(CNC(=O)CO)s2)c2cc(F)ccc2n1` [Compound 67, N-((5-(2-((6-fluoro-2-methylquinazolin-4-yl)thio)acetyl)thiophen-2-yl)methyl)-2-hydroxyacetamide] reads 100 to 500 nM; that for `CCOc1ccc2nc(C)nc(SCC(=O)c3ccc(CNC(=O)CO)s3)c2c1` [Compound 144, N-((5-(2-((6-ethoxy-2-methylquinazolin-4-yl)thio)acetyl)thiophen-2-yl)methyl)-2-hydroxyacetamide], no more than 100 nM; that for `Cc1nc(SCC(=O)c2ccc(CNC(=O)CO)s2)c2c(F)c(Cl)ccc2n1` [Compound 146, N-((5-(2-((6-chloro-5-fluoro-2-methylquinazolin-4-yl)thio)acetyl)thiophen-2-yl)methyl)-2-hydroxyacetamide], no more than 100 nM.
The result for `CC(=O)NCc1ccc(C(=O)CSc2nc(C(F)(F)F)nc3ccccc23)s1` [Compound 99, N-((5-(2-((2-(trifluoromethyl)quinazolin-4-yl)thio)acetyl)thiophen-2-yl)methyl)acetamide] reads no more than 100 nM.

These data come from patent publication US20250051319A1 (AUGUSTINE THERAPEUTICS, priority 2021, published 2025).
